We go through 7 compounds from US8093273B2, “Flavanoids and isoflavanoids for the prevention and treatment of cardiovascular diseases” (Resverlogix Corp., priority 2004, dated 2012).

A short description of one series: Caco-2 permeability. Particulars: human. The format is in vitro ADME, human. The text has this:
(§1) The Caco-2 cell drug transport model is widely used for screening compounds in drug discovery to assess intestinal transport and predict absorption rates.
In general terms: Passage across Caco-2 layers is used to estimate intestinal permeability.

Series [1] concerns human ApoA-I promoter. Nature of the series: ApoA-I promoter induction in HepG2 liver cells (pAI.474-Luc luciferase reporter). The following applies: average values at 15 μM, 48 hours incubation. The class given is cell-based. As to the method: This study determined whether compounds of the invention have an effect on ApoA-I promoter activity expression in HepG2 cells, a liver cell line. Cells were grown under conditions recommended by the ATCC and summarized by Wong.
The promoter region of the gene encoding human ApoA-I was isolated and ligated upstream the structure gene of firefly luciferase to construct a reporter plasmid (pAI.474-Luc). The reporter plasmid, along with pRSV-β-galactosidase (as a control for transfection efficiency), were co-transfected into HepG2 cells. The cells were then incubated in an MEM selection media containing 20% fetal calf serum supplemented with G418 (final concentration: 0.5 mg/mL, Gibco) to give established strains that stably express from the reporter gene. The strains were seeded to a 6-well culture plates and incubated for 48 hours at 37° C. under 5% carbon dioxide. Cells were starved for 24 hrs in MEM selection media containing 0.5% FBS. Then, a solution of the compounds of the invention in DMSO (or other appropriate solvent) was added to the wells at a final concentration of 0 to 100 μM in MEM selection media containing 0.5% FBS.
After further incubation for 48 hours, the cells were harvested and lysed using Reporter Lysis Buffer (PROMEGA E3971), and 50 μL of luciferase assay reagent (PROMEGA E4550 Luciferase Reporter 1000 assay system) were added to measure luciferase activity with a luminometer (Fluoroskan Ascent FL from Thermo electron Corporation). Luciferase activity was normalized to lysate protein concentrations, measured using Bradford Reagent (Biorad Protein Assay reagent Cat #500-0006).
In general terms: Reporter assays use an easily measured gene product as a stand-in for the process of interest.

A short description of series [2]: Solubility analysis in PBS (HPLC-UV). The class given is physicochemical. The following applies: aqueous buffer, thermodynamic from solid; 1 mg in 1 mL PBS, sonicated 1 hour, 25° C. for 3 hrs. The procedure:
Samples were then centrifuged at 14,000 rpm for 6 minutes at room temperature. The supernatant was diluted with acetonitrile and was removed for analysis. Analysis was performed using HPLC-UV with 7-point standard curve to determine the concentration. The average concentration calculated is regarded as the solubility (μM).

The test system of series [3] is human ApoA-I promoter. Nature of the series: Kinetics of ApoA-I promoter induction in Caco-2 cells transfected with pAI.474-Luc. The format is cell-based. The following applies: time points from 4 to 72 hours. As to the method:
Accordingly, the kinetics of induction of the ApoA-I promoter were assessed.
Caco-2 cells transfected with pAI.474-Luc were treated with compounds of the invention at selected time points varying from 4 to 72 hours. This construct pAI.474-Luc contained the human ApoA-I promoter fused to the reporter gene, firefly luciferase (Luc).
Further, maximal stimulation appeared following 48 hour exposure. […] Maximal stimulation appeared following 48 hour exposure to the compound.

A further series relates to hApoA-I transgenic mice. Nature of the series: hApoA-I transgenic mice, oral gavage for 14 days. The class given is in vivo. Summed up: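 Male hApoA-I transgenic mice (7–8 weeks) dosed orally by gavage daily for 14 days, BID or SID, as suspensions at 5 mL/kg in 0.5% methylcellulose/1% Tween 80 or F-101; fenofibrate 100 mg/kg as positive control. After a 4 h fast on day 15, plasma ApoA-I, HDL-C, total cholesterol and triglycerides measured relative to pre-bleed-matched groups.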

The test system of series [4] is human ApoA-I promoter. The series is described as follows: ApoA-I promoter induction in Caco-2 intestinal cells (pAI.474-Luc luciferase reporter). The class given is cell-based. Particulars: Caco-2 cells, 15 μM, 48 hours incubation, luciferase activity vs control samples. In a few lines:
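Caco-2 cells stably carrying the human ApoA-I promoter–firefly luciferase construct (pAI.474-Luc) were starved 24 h in 0.5% FBS medium, then exposed to compound at 0 to 100 μM final for 48 h at 37° C. Luciferase activity in lysates was normalized to Bradford protein and compared with solvent-only and untreated controls.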

Another series deals with Caco-2 cells. Nature of the series: Caco-2 permeability. The format is in vitro ADME, human. The following applies: in vitro Caco-2 intestinal transport model.
Text: as §1

In the next series the test system is ApoA-I protein. Nature of the series: ApoA-I protein expression in HepG2 cells (ELISA of conditioned media). Particulars: 7.5 μM. The format is cell-based, human. The procedure:
This study confirmed that compounds of the invention have an effect on ApoA-I protein secretion in HepG2 (liver) cells by measuring whether stimulation of transcriptional activity of the endogenous ApoA-I promoter in the HepG2 cells increased the abundance and secretion of ApoA-I protein.
The HepG2 cell line was obtained from the ATCC and cultured in MEM media supplemented with 10% FBS (Gibco), with 1 mM sodium pyruvate, 0.1 mM MEM non-essential amino acid, 2 mM L-glutamine, 100 U/ml penicillin, 100 μg/ml streptomycin and 5 μg/ml plasmocin. Cells were maintained at 37° C. in an atmosphere of 5% CO2 Cells were grown to 85% confluency prior to initiating the experiment.
Cells were plated and allowed to adhere overnight in a phenol red-free DMEM containing 10% of Charcoal/Dextran treated FBS (Hyclone), with 1 mM sodium pyruvate, 0.1 mM MEM non-essential amino acid, 2 mM L-glutamine, 100 U/ml penicillin, 100 μg/ml streptomycin and 5 μg/ml plasmocin. The medium was removed, and cells were washed in 1×PBS. Cells were then starved in phenol red-free DMEM (serum free) for a period of 24 hours. Cells were then mock treated (untreated, DMSO), or treated with compound of the invention diluted in phenol red-free DMEM (serum free) media at a concentration of 7.5 μM. Cells and media were harvested at 0, 6 and 24 hours following compound treatment.
Medium was removed from cells at the desired times and applied to a solid phase capture sandwich in an ELISA assay according to manufacturer's instructions (Total human Apolipoprotein ELISA Assay-Alercheck).
(In general: ELISA stands for enzyme-linked immunosorbent assay.)

For series [5], the system named is human ApoA-I promoter. The following applies: Caco-2 cells, reported by Wong; cited from earlier work.
Series [6] has as its system human ApoA-I promoter. The following applies: Caco-2 cells, reported by Wong (US 20040033480); cited from earlier work.
The conditions of series [7]: subjects with low HDL-C; Rubins et al. 1999; cited from earlier work.
For series [8] the following is noted: following oral administration; Gugler et al. 1975; cited from earlier work.

In brackets after ≈: the same amount, converted by molar mass. Like-named read-outs stand apart in the source and are kept apart here.

As usually defined, the solubility is the concentration that dissolves in the medium under given conditions. A low value points to a poorly soluble substance. Consider `O=c1cc(-c2ccc(O)cc2)oc2ccccc12` [4′-hydroxyflavone, reference compound], for which the Papp in “Caco-2 permeability” (Caco-2) is 4.31 ×10⁻⁶ cm/s. Also, the “ApoA-I Promoter Induction” value with human ApoA-I promoter [1] is given as “increased”. The compound further came in with a solubility at 3 h in series [2] of 5.04 µM (≈ 1.2 µg/mL). Besides, the “exposure time of maximal stimulation of ApoA-I promoter activity” value (“exposure time” for short) in the series with human ApoA-I promoter [3] is 48 h. Further, the “plasma ApoA-I, net % change over vehicle” value amounted to 32.44% in the series on hApoA-I transgenic mice (Experiment A, 10 mg/kg BID oral gavage, 14 days, 0.5% methylcellulose/1% Tween 80) and 31.24% with hApoA-I transgenic mice (Experiment B, 10 mpk BID oral gavage, two weeks). Also, the “HDL cholesterol, net % change” value in the series with hApoA-I transgenic mice (Experiment A, 10 mg/kg BID oral gavage, two weeks, NMR lipoprotein profile) amounted to 12.6%. Besides, the “liver weight gain normalized to body weight, compared to vehicle” value with hApoA-I transgenic mice (Experiment A, 10 mg/kg BID, day 15, male mice) is reported as “minor changes”. For the same compound, in the series on hApoA-I transgenic mice (Experiment B, 3 and 30 mpk BID oral gavage, 14 days), the “change in ApoA-I over vehicle” value is “lack of statistically significant change”.
With `O=c1cc(-c2ccc(O)cc2)oc2cc(O)cc(O)c12` [5,7-Dihydroxy-2-(4-hydroxy-phenyl)-chromen-4-one, reference compound], the “exposure time” value in the series on human ApoA-I promoter [3] was found to be 48 h. The “ApoA-I Promoter Induction” value in the series on human ApoA-I promoter [4] is “increased”.
For `O=c1cc(-c2ccc(O)cc2)oc2cc(O)cc(O)c12` [5,7-dihydroxy-2-(4-hydroxyphenyl)-4H-chomen-4-one] [reference compound], the “% Transported Paap” value in the series with Caco-2 cells was 1.5 ×10⁻⁶ cm/s. In the series on human ApoA-I promoter [1], the “ApoA-I Promoter Induction” value is reported as “increased”.
The term melting point denotes the temperature, or range, at which the solid turns liquid. The compound `Oc1ccc(-c2cc3ncccc3cn2)cc1` [Example 57, 4-(1,6-naphthyridin-7-yl)phenol] showed a melting point of 219 to 221 °C. The “ApoA-I content in the medium (ELISA)” value in the series with ApoA-I protein (6 and 24 hours, vs untreated cells and cells treated with solvent) is listed as “increased significantly”. Moreover, the “time after addition of compound at which ApoA-I levels in the medium start to increase” value with ApoA-I protein (time course 0, 6, 24 hours) is ~6 h. The same compound showed a Papp in the series “Caco-2 permeability” (Caco-2) of 5.34 ×10⁻⁶ cm/s. Besides, the change in vivo at 10 mg/kg with hApoA-I transgenic mice (Mus musculus, po, 336 h, Table 6 fourth group, 10 mg/kg BID 14 days, relative to pretreatment, Control 3 1.11, read-out: ApoA-I (% change)) worked out at 9.49%. Besides, in the series on human ApoA-I promoter [4], the “ApoA-I Promoter Induction” value is “increased”.
With `Oc1ccc(/C=C/c2cc(O)cc(O)c2)cc1` [Resveratrol, resveratrol, reference compound], the “% Transported Paap” value in the series on Caco-2 cells is 3.34 ×10⁻⁶ cm/s. In the series “Caco-2 permeability” (in vitro Caco-2 intestinal transport model, read-out: % Transported Paap), the Papp was determined as 3.34 ×10⁻⁶ cm/s. Further, in the series with human ApoA-I promoter [5], the “exposure time” value is 16 h. For the same compound, the “increase of ApoA-I promoter activity over untreated control” value in the series with human ApoA-I promoter [6] was 2.5 times. Further, in the series on human ApoA-I promoter [4], the “ApoA-I Promoter Induction” value is recorded as “increased”.
Consider `Cc1ccc(C)c(OCCCC(C)(C)C(=O)O)c1` [gemfibrozil], for which, in series [7], the “increase in the HDL-C level” value was 6% and the “reduction of the CHD risk” value is 22%.
With `O=c1c(O)c(-c2ccc(O)c(O)c2)oc2cc(O)cc(O)c12` [quercetin], the intestinal absorption result in [8] is reported as “less than 1%”.
